Results reported in the kinase profiling compilation of Christmann-Franck et al. (2016).

Legend:
Test in all cases: KINOMEscan competition binding
Details in all cases: compound 1.0 µM
[1] = tested on: PIK3CA (human), P42336 [M1043I]
PIP5K1A (human) = PIP5K1A (human) (UniProt Q99755)
EPHA8 (human) = EPHA8 (human) (UniProt P29322)
CDK7 (human) = CDK7 (human) (UniProt P50613)
EPHB3 (human) = EPHB3 (human) (UniProt P54753)
PRKD3 (human) = PRKD3 (human) (UniProt O94806)
ITK (human) = ITK (human) (UniProt Q08881)
CHEK1 (human) = CHEK1 (human) (UniProt O14757)
RPS6KA2 KD2 (human) = RPS6KA2 KD2 (human) (UniProt Q15349)
PHKG1 (human) = PHKG1 (human) (UniProt Q16816)
MYLK2 (human) = MYLK2 (human) (UniProt Q9H1R3)
ICK (human) = ICK (human) (UniProt Q9UPZ9)
Chain of ICK (human) (Q9UPZ9 whole entry, looked up): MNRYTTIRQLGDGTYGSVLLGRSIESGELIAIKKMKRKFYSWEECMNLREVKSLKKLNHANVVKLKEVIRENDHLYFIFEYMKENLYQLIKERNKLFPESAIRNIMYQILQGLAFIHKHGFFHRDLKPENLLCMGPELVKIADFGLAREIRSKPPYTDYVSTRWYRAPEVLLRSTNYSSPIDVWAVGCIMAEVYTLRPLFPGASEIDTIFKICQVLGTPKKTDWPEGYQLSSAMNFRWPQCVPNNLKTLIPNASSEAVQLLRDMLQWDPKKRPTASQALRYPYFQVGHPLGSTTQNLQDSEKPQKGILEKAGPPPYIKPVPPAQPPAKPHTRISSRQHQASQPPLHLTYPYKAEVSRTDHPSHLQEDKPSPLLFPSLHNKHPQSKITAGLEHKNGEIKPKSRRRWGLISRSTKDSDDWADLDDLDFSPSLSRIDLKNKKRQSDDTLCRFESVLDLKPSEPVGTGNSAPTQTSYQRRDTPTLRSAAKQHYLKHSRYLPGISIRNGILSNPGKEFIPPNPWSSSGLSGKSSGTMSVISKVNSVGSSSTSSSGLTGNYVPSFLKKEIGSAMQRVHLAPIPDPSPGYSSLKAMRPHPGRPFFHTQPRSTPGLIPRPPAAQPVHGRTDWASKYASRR

[2] = tested on: KIT (human), P10721 [V559D]
EPHA7 (human) = EPHA7 (human) (UniProt Q15375)
CDK5 (human) = CDK5 (human) (UniProt Q00535)
CDK11B (human) = CDK11B (human) (UniProt P21127)
Chain of CDK11B (human) (P21127 whole entry, looked up): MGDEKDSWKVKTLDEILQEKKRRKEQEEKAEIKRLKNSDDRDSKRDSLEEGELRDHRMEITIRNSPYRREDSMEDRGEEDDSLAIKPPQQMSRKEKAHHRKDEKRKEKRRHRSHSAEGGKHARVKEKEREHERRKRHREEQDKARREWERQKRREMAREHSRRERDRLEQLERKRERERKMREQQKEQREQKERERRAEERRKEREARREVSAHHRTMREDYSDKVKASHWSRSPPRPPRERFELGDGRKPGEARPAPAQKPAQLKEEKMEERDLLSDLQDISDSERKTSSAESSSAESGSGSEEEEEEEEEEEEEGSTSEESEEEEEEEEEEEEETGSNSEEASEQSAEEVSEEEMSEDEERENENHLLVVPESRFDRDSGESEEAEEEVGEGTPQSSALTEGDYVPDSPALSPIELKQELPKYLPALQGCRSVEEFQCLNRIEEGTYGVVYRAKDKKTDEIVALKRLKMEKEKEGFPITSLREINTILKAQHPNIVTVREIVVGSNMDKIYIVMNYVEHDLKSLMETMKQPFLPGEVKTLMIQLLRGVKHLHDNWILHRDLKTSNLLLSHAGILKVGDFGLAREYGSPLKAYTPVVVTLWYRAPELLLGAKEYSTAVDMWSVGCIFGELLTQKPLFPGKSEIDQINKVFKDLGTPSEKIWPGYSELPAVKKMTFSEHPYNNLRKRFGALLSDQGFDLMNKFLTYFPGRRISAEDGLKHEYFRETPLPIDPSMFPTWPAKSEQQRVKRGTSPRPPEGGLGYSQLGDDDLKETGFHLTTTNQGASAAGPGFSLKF

PAK4 (human) = PAK4 (human) (UniProt O96013)
FER (human) = FER (human) (UniProt P16591)
RPS6KA1 KD1 (human) = RPS6KA1 KD1 (human) (UniProt Q15418)
CLK4 (human) = CLK4 (human) (UniProt Q9HAZ1)
Chain of CLK4 (human) (Q9HAZ1 whole entry, looked up): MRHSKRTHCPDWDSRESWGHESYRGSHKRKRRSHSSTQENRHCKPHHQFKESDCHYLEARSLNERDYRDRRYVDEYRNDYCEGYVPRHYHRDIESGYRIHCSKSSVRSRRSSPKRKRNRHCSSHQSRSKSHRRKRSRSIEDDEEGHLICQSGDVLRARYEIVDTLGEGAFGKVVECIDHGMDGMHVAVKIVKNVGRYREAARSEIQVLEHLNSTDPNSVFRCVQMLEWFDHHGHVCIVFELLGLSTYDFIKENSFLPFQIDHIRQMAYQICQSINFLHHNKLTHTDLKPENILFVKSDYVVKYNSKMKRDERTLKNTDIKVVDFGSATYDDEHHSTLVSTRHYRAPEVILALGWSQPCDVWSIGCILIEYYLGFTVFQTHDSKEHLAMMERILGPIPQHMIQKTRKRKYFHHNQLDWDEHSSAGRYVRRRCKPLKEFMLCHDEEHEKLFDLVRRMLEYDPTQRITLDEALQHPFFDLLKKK

AKT3 (human) = AKT3 (human) (UniProt Q9Y243)
MAP4K2 (human) = MAP4K2 (human) (UniProt Q12851)
SIK3 (human) = SIK3 (human) (UniProt Q9Y2K2)
DCLK2 (human) = DCLK2 (human) (UniProt Q8N568)
PIP4K2C (human) = PIP4K2C (human) (UniProt Q8TBX8)
[3] = tested on: ABL1 (human), P00519 [Y253F]
[4] = tested on: EGFR (human), P00533 [L861Q]
ROS1 (human) = ROS1 (human) (UniProt P08922)
Chain of ROS1 (human) (P08922 whole entry, looked up): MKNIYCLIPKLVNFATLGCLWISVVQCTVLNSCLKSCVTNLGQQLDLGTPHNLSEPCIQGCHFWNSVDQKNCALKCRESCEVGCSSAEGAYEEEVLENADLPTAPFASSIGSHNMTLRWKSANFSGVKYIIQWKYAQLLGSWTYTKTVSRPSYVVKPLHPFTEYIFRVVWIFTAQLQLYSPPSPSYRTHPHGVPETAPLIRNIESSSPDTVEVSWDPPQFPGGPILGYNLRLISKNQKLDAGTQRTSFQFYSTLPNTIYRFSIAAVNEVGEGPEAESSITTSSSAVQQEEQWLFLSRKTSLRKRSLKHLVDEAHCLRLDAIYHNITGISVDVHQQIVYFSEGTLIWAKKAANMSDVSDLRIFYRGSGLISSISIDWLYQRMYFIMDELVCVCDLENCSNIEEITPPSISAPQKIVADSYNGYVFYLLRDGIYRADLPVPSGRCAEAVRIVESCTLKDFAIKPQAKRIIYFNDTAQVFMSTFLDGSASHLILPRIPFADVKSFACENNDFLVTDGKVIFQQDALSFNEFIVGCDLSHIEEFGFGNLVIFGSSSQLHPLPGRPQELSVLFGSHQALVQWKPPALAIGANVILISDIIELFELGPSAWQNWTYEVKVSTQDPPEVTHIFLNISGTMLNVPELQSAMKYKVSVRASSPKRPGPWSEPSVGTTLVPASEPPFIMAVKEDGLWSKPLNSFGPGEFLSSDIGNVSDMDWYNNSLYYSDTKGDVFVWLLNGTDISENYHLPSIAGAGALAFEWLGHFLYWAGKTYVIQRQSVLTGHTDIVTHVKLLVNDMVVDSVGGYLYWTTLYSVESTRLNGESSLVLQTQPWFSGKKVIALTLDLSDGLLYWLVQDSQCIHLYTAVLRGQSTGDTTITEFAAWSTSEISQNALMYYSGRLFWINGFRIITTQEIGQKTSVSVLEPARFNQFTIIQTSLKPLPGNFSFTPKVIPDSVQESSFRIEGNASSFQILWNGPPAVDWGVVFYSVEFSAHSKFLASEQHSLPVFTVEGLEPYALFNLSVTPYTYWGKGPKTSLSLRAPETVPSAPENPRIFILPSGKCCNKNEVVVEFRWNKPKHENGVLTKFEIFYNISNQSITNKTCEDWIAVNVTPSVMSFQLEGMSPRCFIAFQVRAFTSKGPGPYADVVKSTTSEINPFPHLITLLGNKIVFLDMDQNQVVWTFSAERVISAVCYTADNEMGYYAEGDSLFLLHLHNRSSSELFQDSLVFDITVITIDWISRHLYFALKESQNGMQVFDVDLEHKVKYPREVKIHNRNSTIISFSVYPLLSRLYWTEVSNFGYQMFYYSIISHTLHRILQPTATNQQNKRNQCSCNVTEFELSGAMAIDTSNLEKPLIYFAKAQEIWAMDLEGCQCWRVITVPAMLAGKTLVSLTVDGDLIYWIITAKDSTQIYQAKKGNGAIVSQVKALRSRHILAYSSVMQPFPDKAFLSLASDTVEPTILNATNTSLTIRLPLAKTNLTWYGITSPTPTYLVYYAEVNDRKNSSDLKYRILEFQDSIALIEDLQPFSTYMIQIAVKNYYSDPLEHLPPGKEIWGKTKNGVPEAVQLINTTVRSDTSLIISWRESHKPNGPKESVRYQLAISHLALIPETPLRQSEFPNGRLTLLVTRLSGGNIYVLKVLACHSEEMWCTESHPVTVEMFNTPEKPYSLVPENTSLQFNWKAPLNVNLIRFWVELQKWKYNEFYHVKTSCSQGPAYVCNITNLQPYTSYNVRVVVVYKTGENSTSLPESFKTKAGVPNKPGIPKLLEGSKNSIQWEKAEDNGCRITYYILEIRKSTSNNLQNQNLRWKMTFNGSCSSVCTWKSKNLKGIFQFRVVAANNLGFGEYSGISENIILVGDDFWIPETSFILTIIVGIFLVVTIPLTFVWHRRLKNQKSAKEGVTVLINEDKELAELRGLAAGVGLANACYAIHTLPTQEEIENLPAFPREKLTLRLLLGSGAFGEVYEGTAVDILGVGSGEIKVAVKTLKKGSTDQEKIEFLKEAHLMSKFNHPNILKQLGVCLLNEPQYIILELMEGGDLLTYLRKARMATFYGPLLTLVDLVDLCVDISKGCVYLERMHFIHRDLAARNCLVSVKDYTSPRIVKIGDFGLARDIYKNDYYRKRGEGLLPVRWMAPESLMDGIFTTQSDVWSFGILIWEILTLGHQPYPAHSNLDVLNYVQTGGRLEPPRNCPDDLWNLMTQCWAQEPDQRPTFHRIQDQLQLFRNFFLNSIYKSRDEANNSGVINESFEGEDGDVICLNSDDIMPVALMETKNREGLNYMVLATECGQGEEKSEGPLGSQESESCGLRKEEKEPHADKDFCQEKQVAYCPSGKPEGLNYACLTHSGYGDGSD

TNIK (human) = TNIK (human) (UniProt Q9UKE5)
PAK6 (human) = PAK6 (human) (UniProt Q9NQU5)
Chain of PAK6 (human) (Q9NQU5 whole entry, looked up): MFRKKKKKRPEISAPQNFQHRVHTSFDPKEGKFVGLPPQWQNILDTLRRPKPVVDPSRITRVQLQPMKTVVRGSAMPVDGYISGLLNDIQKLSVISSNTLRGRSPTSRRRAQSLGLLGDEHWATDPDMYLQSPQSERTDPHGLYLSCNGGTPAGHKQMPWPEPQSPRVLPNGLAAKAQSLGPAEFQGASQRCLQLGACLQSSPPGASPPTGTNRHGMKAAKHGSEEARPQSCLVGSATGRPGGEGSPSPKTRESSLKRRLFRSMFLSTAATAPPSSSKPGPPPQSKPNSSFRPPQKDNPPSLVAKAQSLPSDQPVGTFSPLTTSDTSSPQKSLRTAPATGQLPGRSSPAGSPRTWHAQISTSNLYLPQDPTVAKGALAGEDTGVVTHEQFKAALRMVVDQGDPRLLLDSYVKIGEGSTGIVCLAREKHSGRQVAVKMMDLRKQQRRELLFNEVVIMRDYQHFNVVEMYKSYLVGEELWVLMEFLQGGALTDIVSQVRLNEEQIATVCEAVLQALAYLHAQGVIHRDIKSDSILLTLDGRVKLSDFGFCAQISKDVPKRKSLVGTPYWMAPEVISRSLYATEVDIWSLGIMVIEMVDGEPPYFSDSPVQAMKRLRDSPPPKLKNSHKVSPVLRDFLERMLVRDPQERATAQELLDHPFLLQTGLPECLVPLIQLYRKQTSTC

CAMK2A (human) = CAMK2A (human) (UniProt Q9UQM7)
CDC42BPA (human) = CDC42BPA (human) (UniProt Q5VT25)
CSF1R (human) = CSF1R (human) (UniProt P07333)
DAPK3 (human) = DAPK3 (human) (UniProt O43293)
TYRO3 (human) = TYRO3 (human) (UniProt Q06418)
[5] = target: JAK2 JH1 catalytic (human) (UniProt O60674)
AURKA (human) = AURKA (human) (UniProt O14965)
CAMK4 (human) = CAMK4 (human) (UniProt Q16566)
KDR (human) = KDR (human) (UniProt P35968)
AXL (human) = AXL (human) (UniProt P30530)
MAP3K15 (human) = MAP3K15 (human) (UniProt Q6ZN16)
TGFBR2 (human) = TGFBR2 (human) (UniProt P37173)
FGFR4 (human) = FGFR4 (human) (UniProt P22455)

Q: Which kinase still bound, per cent of control [1] does the source give for COCCNCCCn1c(C(=O)CF)c(-c2ccc(C)cc2)c2c(N)ncnc21 here?
A: The kinase still bound, per cent of control was 100%.

Q: What about the kinase still bound, per cent of control (PIP5K1A (human)) of the same compound?
A: Its kinase still bound, per cent of control is 100%.

Q: What about the kinase still bound, per cent of control (EPHA8 (human)) of the same compound?
A: The kinase still bound, per cent of control was 75%.

Q: And the kinase still bound, per cent of control (CDK7 (human))?
A: Its kinase still bound, per cent of control is 100%.

Q: And the kinase still bound, per cent of control (EPHB3 (human))?
A: Its kinase still bound, per cent of control is 100%.

Q: And the kinase still bound, per cent of control (PRKD3 (human))?
A: Its kinase still bound, per cent of control is 100%.

Q: What about the kinase still bound, per cent of control (ITK (human)) of the same compound?
A: Its kinase still bound, per cent of control is 100%.

Q: What about the kinase still bound, per cent of control (CHEK1 (human)) of the same compound?
A: Its kinase still bound, per cent of control is 100%.

Q: And the kinase still bound, per cent of control (RPS6KA2 KD2 (human))?
A: Its kinase still bound, per cent of control is 95%.

Q: And the kinase still bound, per cent of control (PHKG1 (human))?
A: The kinase still bound, per cent of control was 100%.

Q: And the kinase still bound, per cent of control (MYLK2 (human))?
A: The kinase still bound, per cent of control was 95%.

Q: What about the kinase still bound, per cent of control (ICK (human)) of the same compound?
A: Its kinase still bound, per cent of control is 100%.

Q: What about the kinase still bound, per cent of control [2] of the same compound?
A: Its kinase still bound, per cent of control is 73%.

Q: And the kinase still bound, per cent of control (EPHA7 (human))?
A: Its kinase still bound, per cent of control is 92%.

Q: And the kinase still bound, per cent of control (CDK5 (human))?
A: Its kinase still bound, per cent of control is 95%.

Q: And the kinase still bound, per cent of control (CDK11B (human))?
A: The kinase still bound, per cent of control was 100%.

Q: What about the kinase still bound, per cent of control (PAK4 (human)) of the same compound?
A: The kinase still bound, per cent of control was 92%.

Q: What about the kinase still bound, per cent of control (FER (human)) of the same compound?
A: Its kinase still bound, per cent of control is 84%.

Q: And the kinase still bound, per cent of control (RPS6KA1 KD1 (human))?
A: The kinase still bound, per cent of control was 78%.

Q: What about the kinase still bound, per cent of control (CLK4 (human)) of the same compound?
A: Its kinase still bound, per cent of control is 91%.

Q: What about the kinase still bound, per cent of control (AKT3 (human)) of the same compound?
A: The kinase still bound, per cent of control was 86%.

Q: And the kinase still bound, per cent of control (MAP4K2 (human))?
A: The kinase still bound, per cent of control was 94%.

Q: What about the kinase still bound, per cent of control (SIK3 (human)) of the same compound?
A: The kinase still bound, per cent of control was 91%.

Q: What about the kinase still bound, per cent of control (DCLK2 (human)) of the same compound?
A: Its kinase still bound, per cent of control is 100%.

Q: What about the kinase still bound, per cent of control (PIP4K2C (human)) of the same compound?
A: The kinase still bound, per cent of control was 100%.

Q: What about the kinase still bound, per cent of control [3] of the same compound?
A: Its kinase still bound, per cent of control is 94%.

Q: What about the kinase still bound, per cent of control [4] of the same compound?
A: The kinase still bound, per cent of control was 84%.

Q: What about the kinase still bound, per cent of control (ROS1 (human)) of the same compound?
A: The kinase still bound, per cent of control was 100%.

Q: And the kinase still bound, per cent of control (TNIK (human))?
A: Its kinase still bound, per cent of control is 95%.

Q: What about the kinase still bound, per cent of control (PAK6 (human)) of the same compound?
A: The kinase still bound, per cent of control was 93%.

Q: And the kinase still bound, per cent of control (CAMK2A (human))?
A: The kinase still bound, per cent of control was 78%.

Q: What about the kinase still bound, per cent of control (CDC42BPA (human)) of the same compound?
A: Its kinase still bound, per cent of control is 92%.

Q: What about the kinase still bound, per cent of control (CSF1R (human)) of the same compound?
A: Its kinase still bound, per cent of control is 89%.

Q: What about the kinase still bound, per cent of control (DAPK3 (human)) of the same compound?
A: Its kinase still bound, per cent of control is 97%.

Q: And the kinase still bound, per cent of control (TYRO3 (human))?
A: Its kinase still bound, per cent of control is 100%.

Q: And the kinase still bound, per cent of control [5]?
A: Its kinase still bound, per cent of control is 100%.

Q: What about the kinase still bound, per cent of control (AURKA (human)) of the same compound?
A: Its kinase still bound, per cent of control is 92%.

Q: What about the kinase still bound, per cent of control (CAMK4 (human)) of the same compound?
A: Its kinase still bound, per cent of control is 100%.

Q: And the kinase still bound, per cent of control (KDR (human))?
A: The kinase still bound, per cent of control was 85%.

Q: What about the kinase still bound, per cent of control (AXL (human)) of the same compound?
A: The kinase still bound, per cent of control was 81%.

Q: What about the kinase still bound, per cent of control (MAP3K15 (human)) of the same compound?
A: Its kinase still bound, per cent of control is 100%.

Q: And the kinase still bound, per cent of control (TGFBR2 (human))?
A: The kinase still bound, per cent of control was 100%.

Q: What about the kinase still bound, per cent of control (FGFR4 (human)) of the same compound?
A: The kinase still bound, per cent of control was 100%.
